Series [1] has as its target T1, Acetylcholinesterase (Mus musculus, UniProt P21836).
T1 sequence (P21836 whole entry): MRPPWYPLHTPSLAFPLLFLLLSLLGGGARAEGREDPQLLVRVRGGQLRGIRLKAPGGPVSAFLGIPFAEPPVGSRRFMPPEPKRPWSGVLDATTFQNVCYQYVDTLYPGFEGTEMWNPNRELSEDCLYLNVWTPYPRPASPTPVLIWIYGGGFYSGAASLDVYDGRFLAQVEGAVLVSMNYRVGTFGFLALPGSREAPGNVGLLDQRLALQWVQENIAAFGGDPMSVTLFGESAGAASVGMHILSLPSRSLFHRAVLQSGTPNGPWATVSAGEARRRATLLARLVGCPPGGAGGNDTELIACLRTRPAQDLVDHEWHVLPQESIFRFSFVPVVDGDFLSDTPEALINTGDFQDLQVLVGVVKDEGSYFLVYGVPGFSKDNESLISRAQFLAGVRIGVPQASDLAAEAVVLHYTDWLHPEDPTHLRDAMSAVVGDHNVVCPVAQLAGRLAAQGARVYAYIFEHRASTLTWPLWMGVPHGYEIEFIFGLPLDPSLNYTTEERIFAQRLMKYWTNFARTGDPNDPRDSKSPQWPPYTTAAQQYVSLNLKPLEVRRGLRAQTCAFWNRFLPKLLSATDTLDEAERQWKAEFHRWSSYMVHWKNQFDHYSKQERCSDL

Series [2] deals with T2, Amine oxidase [flavin-containing] B (Homo sapiens, UniProt P27338).
T2 sequence (P27338 whole entry): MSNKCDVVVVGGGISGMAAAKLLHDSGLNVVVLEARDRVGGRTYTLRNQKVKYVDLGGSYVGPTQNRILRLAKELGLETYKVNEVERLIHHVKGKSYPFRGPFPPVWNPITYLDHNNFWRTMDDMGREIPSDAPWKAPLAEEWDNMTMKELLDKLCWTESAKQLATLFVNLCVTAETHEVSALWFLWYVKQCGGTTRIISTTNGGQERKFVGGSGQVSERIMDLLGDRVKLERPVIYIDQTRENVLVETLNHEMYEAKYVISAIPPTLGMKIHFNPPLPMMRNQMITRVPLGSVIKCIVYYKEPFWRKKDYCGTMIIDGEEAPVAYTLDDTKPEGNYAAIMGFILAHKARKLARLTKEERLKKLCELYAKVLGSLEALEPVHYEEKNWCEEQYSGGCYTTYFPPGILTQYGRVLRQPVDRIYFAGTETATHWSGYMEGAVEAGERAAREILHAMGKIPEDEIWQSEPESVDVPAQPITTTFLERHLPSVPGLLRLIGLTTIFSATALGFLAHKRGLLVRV
The series can be described thus: biochemical. The series is classed as cell-based.

Series [3] concerns BChE. The series can be described thus: in vitro. The conditions noted are these: human, SH-SY5Y cells.
Series [4] relates to SH-SY5Y. Put plainly: Neuroprotective activity against amyloid beta (1 to 42) induced cell death in human SH-SY5Y cells assessed as cell viability at 5 uM measured after 48 hrs by MTS assay. The series is classed as functional, cell-based. (Formazan colour is commonly taken as a measure of viable cells.)
For series [5], the target named is Amyloid-beta precursor protein (Homo sapiens) (UniProt P05067). The series can be described thus: Inhibition of HFIP-pretreated recombinant human amyloid beta (1 to 42) self-induced aggregation at 10 uM measured after 20 hrs for every 300 secs by thioflavin-T based fluorometric assay relative to control.
Sequence of Amyloid-beta precursor protein (Homo sapiens) (P05067 whole entry): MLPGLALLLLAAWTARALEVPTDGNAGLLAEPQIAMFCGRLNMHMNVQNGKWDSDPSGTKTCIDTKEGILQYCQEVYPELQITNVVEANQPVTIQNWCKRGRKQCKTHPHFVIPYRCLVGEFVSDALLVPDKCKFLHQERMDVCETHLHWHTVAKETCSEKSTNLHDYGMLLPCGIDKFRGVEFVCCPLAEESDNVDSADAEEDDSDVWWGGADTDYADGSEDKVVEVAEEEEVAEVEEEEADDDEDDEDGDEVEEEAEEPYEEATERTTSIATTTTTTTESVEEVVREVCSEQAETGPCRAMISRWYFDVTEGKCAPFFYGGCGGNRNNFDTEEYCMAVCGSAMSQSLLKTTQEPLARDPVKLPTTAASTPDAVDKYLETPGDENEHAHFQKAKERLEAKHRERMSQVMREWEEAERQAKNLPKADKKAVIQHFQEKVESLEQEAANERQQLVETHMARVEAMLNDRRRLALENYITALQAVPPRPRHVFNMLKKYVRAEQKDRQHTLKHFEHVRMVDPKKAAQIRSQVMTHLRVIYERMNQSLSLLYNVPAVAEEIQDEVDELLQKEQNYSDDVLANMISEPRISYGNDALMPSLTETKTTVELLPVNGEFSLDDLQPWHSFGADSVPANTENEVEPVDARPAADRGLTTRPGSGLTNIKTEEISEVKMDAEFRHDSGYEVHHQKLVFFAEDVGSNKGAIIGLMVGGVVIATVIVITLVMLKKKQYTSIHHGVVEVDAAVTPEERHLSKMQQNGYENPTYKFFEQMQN
Series [6] concerns the target T2, Amine oxidase [flavin-containing] B. The series can be described thus: Irreversible inhibition of human recombinant microsomal MAO-B expressed in baculovirus-infected insect cells at 10 times IC50 preincubated for 15 mins followed by dilution to […] and subsequent addition of p-tyramine hydrochloride substrate measured for 30 mins by amplex red assay relative to control. The following applies: 0.5 h.

Series [7] addresses Cholinesterase (Homo sapiens, UniProt P06276).
Series [8] has as its system MAO-B. Put plainly: Selectivity index, ratio of LD50 for cytotoxicity against human SH-SY5Y cells to IC50 for human recombinant microsomal MAO-B expressed in baculovirus-infected insect cells. The series is classed as toxicity. The following applies: read-out: Ratio LD50/IC50.
The nature of series [9]: Cytotoxicity against human SH-SY5Y cells measured after 48 hrs by MTS assay. The series is classed as toxicity, cell-based. The conditions noted are these: read-out: LD50.
A short description of series [10]: Cytotoxicity against human SH-SY5Y cells at 5 uM measured after 48 hrs by MTS assay. The series is classed as toxicity, cell-based.
Series [11] is filed under the species Homo sapiens. Put plainly: Selectivity ratio of IC50 for human recombinant microsomal MAO-A expressed in baculovirus-infected insect cells to IC50 for human recombinant microsomal MAO-B expressed in baculovirus-infected insect cells.
Series [12] concerns the target T3, Amine oxidase [flavin-containing] A (Homo sapiens, UniProt P21397).
T3 sequence (P21397 whole entry): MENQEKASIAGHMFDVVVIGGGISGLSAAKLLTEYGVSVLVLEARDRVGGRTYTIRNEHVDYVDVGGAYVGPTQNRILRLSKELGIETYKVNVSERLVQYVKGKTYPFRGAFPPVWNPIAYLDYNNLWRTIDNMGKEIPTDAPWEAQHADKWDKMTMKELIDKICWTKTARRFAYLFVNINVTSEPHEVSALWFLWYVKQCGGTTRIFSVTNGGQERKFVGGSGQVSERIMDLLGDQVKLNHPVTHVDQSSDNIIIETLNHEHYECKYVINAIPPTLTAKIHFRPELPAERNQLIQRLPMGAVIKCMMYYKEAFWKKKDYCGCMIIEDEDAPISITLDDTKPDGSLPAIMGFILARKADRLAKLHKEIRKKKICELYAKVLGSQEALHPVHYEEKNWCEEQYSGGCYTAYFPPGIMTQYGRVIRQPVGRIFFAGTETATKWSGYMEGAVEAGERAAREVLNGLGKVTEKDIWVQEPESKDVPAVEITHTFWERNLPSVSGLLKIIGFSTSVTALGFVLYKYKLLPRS
Put plainly: biochemical.

Series [13] has as its target T2, Amine oxidase [flavin-containing] B. Put plainly: Time-dependent inhibition of human recombinant microsomal MAO-B expressed in baculovirus-infected insect cells preincubated for 5 to 30 mins by IC50 shift assay.
In series [14] the test system is SH-SY5Y. Put plainly: Neuroprotective activity against amyloid beta (1 to 42) induced cell death in human SH-SY5Y cells assessed as cell viability at […] measured after 48 hrs by MTS assay. The class given is functional, cell-based.
Series [15] is described as follows: Cytotoxicity against human SH-SY5Y cells at […] measured after 48 hrs by MTS assay. The series is classed as toxicity, cell-based.
The conditions of series [16]: PAMPA, pH 7.4.

Active and inactive are the calls of the source. The calls are words filed in the database; no cut-off is given here.

Sequence of Cholinesterase (P06276 whole entry): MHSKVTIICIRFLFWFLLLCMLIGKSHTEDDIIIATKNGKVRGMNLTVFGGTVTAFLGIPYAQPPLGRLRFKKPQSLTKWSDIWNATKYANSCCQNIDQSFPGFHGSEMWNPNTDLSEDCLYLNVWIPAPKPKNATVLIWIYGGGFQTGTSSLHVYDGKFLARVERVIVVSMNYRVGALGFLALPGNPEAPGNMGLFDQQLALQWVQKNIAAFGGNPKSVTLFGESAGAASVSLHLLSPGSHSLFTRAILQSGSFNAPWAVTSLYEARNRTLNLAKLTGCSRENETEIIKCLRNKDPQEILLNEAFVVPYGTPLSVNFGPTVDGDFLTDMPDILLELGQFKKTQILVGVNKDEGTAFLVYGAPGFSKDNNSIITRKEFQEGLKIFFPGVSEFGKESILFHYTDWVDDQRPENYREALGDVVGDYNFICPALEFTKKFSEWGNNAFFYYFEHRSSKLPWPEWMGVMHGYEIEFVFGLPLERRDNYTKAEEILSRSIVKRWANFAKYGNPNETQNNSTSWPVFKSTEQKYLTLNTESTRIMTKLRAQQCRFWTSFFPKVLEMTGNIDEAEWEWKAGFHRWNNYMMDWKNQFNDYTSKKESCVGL

With `C#CCN1CCC(CNS(=O)(=O)c2ccc3ccccc3c2)CC1`, the IC50 was > 100 µM in series [1], 53.9 µM in series [2], 2.6 µM in series [7] and > 100 µM in series [12]. Further, the selectivity ratio in series [3] is 90; in series [8], 4. The result in [4] was Active. In series [5], the inhibition was < 10%. In addition, the “inhibition (INH)” value in series [6] is > 70%. In addition, in series [9], the CC50 at 48 h was determined as 242 µM. Further, the Activity result in [10] is given as “Non-Toxic”. In addition, the Ratio IC50 in [11] was > 1.86. The TDI entry in series [13] is reported as “Active”.

In the case of `C#CCN1CCCC(CNC(=O)c2ccc3ccccc3c2)C1` (centres undefined), the IC50 in series [1] is > 100 µM; in [2], 59.3 µM; in series [7] it was 23.4 µM; in [12], > 100 µM. Besides, the inhibition in series [5] was < 10%. Besides, the Ratio IC50 in [11] was > 1.69.

In the case of `C#CCN1CCCC(CN(CCOC)S(=O)(=O)c2ccc3ccccc3c2)C1` (centres undefined), the IC50 in [1] was > 100 µM; in series [2] it was > 100 µM; in [7] it was 0.137 µM; in series [12] it was > 100 µM. The inhibition in series [5] was < 10%. In addition, the Ratio IC50 in series [11] was found to be 1.

As to `C#CCN1CCC(CNC(=O)c2ccc3ccccc3c2)CC1`, the IC50 in series [1] was > 100 µM; in [2] it was 72.6 µM; in series [7], 54.4 µM; in [12], > 100 µM. Also, the inhibition in series [5] is < 10%. Also, in series [11], the Ratio IC50 is > 1.38.

As for `C#CCN1CCCC(CN(CCCOC)S(=O)(=O)c2ccc3ccccc3c2)C1` (centres undefined), the IC50 in series [1] is > 100 µM; in series [2] it was > 100 µM; in series [7], 0.127 µM; in series [12], > 100 µM. Also, the selectivity ratio in series [3] is 375. Also, the inhibition in series [5] was < 10%. Moreover, the CC50 at 48 h in series [9] was 48.1 µM. Moreover, the outcome in [14] was Active. In addition, in series [15], the Activity result is “Non-Toxic”. The Ratio IC50 in series [11] was determined as 1.

For the molecule `CC(=O)[C@H]1CC[C@H]2[C@@H]3CCC4=CC(=O)CC[C@]4(C)[C@H]3CC[C@]12C` [PROGESTERONE], the logPeff in [16] is given as -4.

Turning to `C#CCN1CCCC(CNS(=O)(=O)c2ccc3ccccc3c2)C1` (centres undefined), the IC50 in [1] was > 100 µM; in series [2], > 100 µM; in series [7], 1.22 µM; in series [12] it was > 100 µM. In [5], the inhibition is < 10%. Further, the Ratio IC50 in series [11] was determined as 1.

As to `C#CCN1CCC(CN(CCCOC)S(=O)(=O)c2ccc3ccccc3c2)CC1`, the IC50 was > 100 µM in series [1], > 100 µM in [2], 0.281 µM in [7] and > 100 µM in [12]. Besides, in series [5], the inhibition is < 10%. Moreover, in series [11], the Ratio IC50 was determined as 1.

Turning to `C#CCN1CCCC(CN(CCOC)C(=O)c2ccc3ccccc3c2)C1` (centres undefined), the IC50 is > 100 µM in series [1], > 100 µM in series [2], 3.31 µM in series [7] and > 100 µM in [12]. For the same molecule, in series [5], the inhibition is < 10%. The Ratio IC50 in series [11] worked out at 1.

Regarding `C#CCN1CCCC(CN(CCCOC)C(=O)c2ccc3ccccc3c2)C1` (centres undefined), the IC50 was > 100 µM in [1], > 100 µM in [2], 8.64 µM in series [7] and > 100 µM in series [12]. Besides, in series [5], the inhibition is < 10%. Further, the Ratio IC50 in series [11] is 1.

In the case of `C#CCN1CCC(CN(CCOC)C(=O)c2ccc3ccccc3c2)CC1`, the IC50 in series [1] was > 100 µM; in series [2] it was > 100 µM; in series [7] it was 4.04 µM; in [12], > 100 µM. For the same molecule, the inhibition in series [5] turned out to be 23.4%. Further, the Ratio IC50 in [11] was 1.

Take `C#CCN1CCC(CN(CCCOC)C(=O)c2ccc3ccccc3c2)CC1`: the IC50 in series [1] is > 100 µM; in series [2], > 100 µM; in [7] it was 4.59 µM; in [12], > 100 µM. Moreover, the inhibition in [5] is < 10%. For the same molecule, the Ratio IC50 in series [11] came to 1.

As to `C#CCN1CCC(CN(CCOC)S(=O)(=O)c2ccc3ccccc3c2)CC1`, the IC50 in [1] was > 100 µM; in [2], > 100 µM; in series [7], 0.384 µM; in series [12], > 100 µM. In series [5], the inhibition is < 10%. Besides, the Ratio IC50 in series [11] was determined as 1.

A word on the IC50: it is the concentration needed to halve the response being measured. The inhibition is how much of the control response was suppressed.

The values are drawn from ChEMBL document CHEMBL3871295, “N-Propargylpiperidines with naphthalene-2-carboxamide or naphthalene-2-sulfonamide moieties: Potential multifunctional anti-Alzheimer's agents” (Bioorg Med Chem, 2017).
